Like-named read-outs stand apart in the source and are kept apart here.

The source of these data is patent US20180153168A1, “A PRIMER FOR PESTICIDES” (PANGAEA AGROCHEMICALS LIMITED, priority 2015, published 2018).

One series concerns plant crop. The following applies: optimised dose rate. Here is the method:
Preferably, the time delay is from 1 to 24 hours, preferably from 2 to 8 hours. However, the time delay required varies with temperature and dose rate. […] (these time delays assume an optimised dose rate).

A further series relates to plants. As to conditions: applied alone, in the absence of any active ingredients; cited from earlier work.
A further series has as its system pollen beetle. The following applies: with insecticides.
Another series concerns white fly. As to conditions: with insecticides.
Series [1] deals with clodinafop resistant strains of blackgrass. The protocol: Further experiments were carried out using clodinafop resistant strains of blackgrass.
Daytime temperature of 11° C. Night time temperature of 8° C.

The test system of series [2] is glyphosate resistant strain of Italian ryegrass. The series is described as follows: Control of glyphosate resistant Italian ryegrass, piperonyl butoxide pre-treatment then glyphosate (Western Australia). The series is classed as in vivo. As to conditions: glyphosate without piperonyl butoxide; 8 replicated trials; FIG. 1.
Setting [3] is: piperonyl butoxide 320 grams per ha then clodinafop 250 g ai/ha, daytime 11° C., night 8° C., FIG. 9.

Turning to `CCCCOCCOCCOCc1cc2c(cc1CCC)OCO2` [piperonyl butoxide], the optimum time delay turned out to be 8 h with plant crop (11° C.), 4 h in the series on plant crop (15° C.) and 2.5 h in the series on plant crop (25° C.). Also, the toxicity to plants result with plants is “not detectable”. The “optimum delay for application” value was “approximately 1 hour” in the series on pollen beetle and roughly 8 h in the series with white fly. This molecule displayed an optimum delay in series [1] (early autumn trials, ambient temperature of the order of 18° C.) of 2 to 8 h. In addition, the “delays showing high levels of control” value in series [1] (setting [3]) lay in the range of 8 to 16 h. Moreover, in series [1] (setting [3]), the “optimum delay for efficacy” value is on record as “approximately 8 hours”.

Take `O=C(O)CNCP(=O)(O)O` [glyphosate]: the level of control entry in series [2] is reported as “minimal”.
